Measurements as given in ChEMBL document CHEMBL4739717, “Methods of treating cartilage disorders through inhibition of clk and dyrk” (2020).

Columns and labels:
[1] = Induction of chondrogenesis in human MSC assessed as maximum activity at 10 nM incubated for 6 days by rhodamine B and Nile red staining based imaging analysis relative to control; format: functional; conditions: BMMSC, 144 h, time 6 day
[2] = Induction of chondrogenesis in human MSC assessed as incubated for 6 days by rhodamine B and Nile red staining based imaging analysis; format: functional; conditions: bmmsc
[3] = target: Dual specificity tyrosine-phosphorylation-regulated kinase 1A (Homo sapiens, UniProt Q13627); test: Inhibition of recombinant DYRK1A (unknown origin) using Ser/Thr 18 peptide as substrate incubated for 1 hr in presence of ATP by FRET assay
[4] = Effect on Wnt signaling pathway in human SW480 cells harbouring TCF/LEF luciferase reporter gene and SP5-Luc reporter gene incubated for 36 to 48 hrs by luminescence assay; format: cell-based

SMILES	Emax at 0.01 µM [1] [%]	EC50 [2] [µM]	EC50 [3] [µM]	EC50 [4] [µM]
c1cncc(-c2ccc3[nH]nc(-c4cc5cccnc5[nH]4)c3n2)c1	65.9	0.01	0.024	> 10
Fc1ccc(-c2nccc3[nH]c(-c4n[nH]c5cnc(-c6cncc(CN7CCC(F)(F)C7)c6)cc45)cc23)cc1	61.2	0.01	0.01	0.291
O=C(Nc1cncc(-c2cc3c(-c4cc5cnccc5[nH]4)n[nH]c3cn2)c1)C1CCCCC1	59.4	0.03	0.003	1.62
Clc1ccc(-c2cncc3[nH]c(-c4n[nH]c5ccc(-c6cncc(CN7CCCC7)c6)nc45)nc23)s1	62	0.01	0.054	3.33
CCCCC(=O)Nc1cncc(-c2ccc3[nH]nc(-c4nc5c(-c6ccoc6)cncc5[nH]4)c3n2)c1	73.6	0.01	0.092	> 10
CC(C)Nc1cncc(-c2ccc3[nH]nc(-c4nc5c(-c6cccnc6)cncc5[nH]4)c3n2)c1	64.6	0.03	0.015	1.27
c1cnc2[nH]c(-c3n[nH]c4ccc(-c5cncc(CN6CCCCC6)c5)cc34)cc2c1	50.8	0.01	0.004	1.67
c1cncc(-c2ccc3[nH]nc(-c4nc5c(-c6cccnc6)cccc5[nH]4)c3n2)c1	57.8	0.03	0.053	1.12
Nc1cncc(-c2ccc3[nH]nc(-c4nc5c(-c6ccccc6F)cccc5[nH]4)c3n2)c1	81.8	0.03	0.04	1.07
Fc1ccccc1-c1nccc2[nH]c(-c3n[nH]c4cnc(-c5cncc(CN6CCCC6)c5)cc34)cc12	69.4	0.01	0.041	1.98
c1csc(-c2nccc3[nH]c(-c4n[nH]c5cnc(-c6cncc(CN7CCCCC7)c6)cc45)cc23)c1	59	0.01	0.031	3.68
O=C(Nc1cncc(-c2ccc3[nH]nc(-c4nc5c(-c6ccc(Cl)s6)cncc5[nH]4)c3n2)c1)C1CCC1	67.9	0.03	0.072	0.8
O=C(Nc1cncc(-c2cnc3[nH]nc(-c4cc5c(-c6ccccc6F)cncc5[nH]4)c3c2)c1)C1CC1	52.1	0.01	0.048	0.39
CC(C)C(=O)Nc1cncc(-c2cc3c(-c4cc5c(-c6cccnc6)cccc5[nH]4)n[nH]c3cn2)c1	201	0.01	0.077	0.275
CN(C)CCNc1cc(F)cc(-c2cccc3[nH]c(-c4n[nH]c5ccc(-c6cncnc6)nc45)cc23)c1	181	0.01	0.075	0.42
O=C(CC1CCNCC1)Nc1cncc(-c2ccc3[nH]nc(-c4cc5c(-c6ccoc6)ccnc5[nH]4)c3n2)c1	102	0.01	0.064	> 10
CS(=O)(=O)NCc1cc(F)cc(-c2nccc3[nH]c(-c4n[nH]c5cnc(-c6cncc(CNCC7CCCC7)c6)cc45)cc23)c1	52.3	0.03	0.027	> 10
CS(=O)(=O)NCc1cc(F)cc(-c2nccc3[nH]c(-c4n[nH]c5ccc(-c6cncc(CN7CCCCC7)c6)nc45)cc23)c1	50.1	0.01	0.068	1.1
c1ccc2[nH]c(-c3n[nH]c4ncc(-c5cncc(CN6CCCC6)c5)cc34)cc2c1	97.6	0.01	0.056	1.41
c1cncc(-c2cc3c(-c4cc5cnccc5[nH]4)n[nH]c3cn2)c1	62	0.03	0.002	0.133
CC(C)C(=O)Nc1cncc(-c2cc3c(-c4cc5c(-c6cc(F)cc(CNS(C)(=O)=O)c6)nccc5[nH]4)n[nH]c3cn2)c1	79.5	0.03	0.027	> 10
CC(C)Oc1ccc(NC(=O)c2n[nH]c3ccc(-c4cncc(CN5CCCCC5)c4)cc23)cn1	51.9	0.01	0.017	0.041
CCCCC(=O)Nc1cncc(-c2cc3c(-c4cc5c(-c6cccnc6)ccnc5[nH]4)n[nH]c3cn2)c1	52.8	0.01	0.029	> 10
COc1cccc(-c2nccc3[nH]c(-c4n[nH]c5ccc(-c6cccnc6)nc45)nc23)c1	50.6	0.03	0.026	0.377
CCCCC(=O)Nc1cncc(-c2ccc3[nH]nc(-c4nc5c(-c6cc(F)cc(NCCN(C)C)c6)cncc5[nH]4)c3n2)c1	64.7	0.01	0.055	> 10

SMILES	Emax at 0.01 µM [1] [%]	EC50 [2] [µM]	EC50 [3] [µM]	EC50 [4] [µM]
CC(C)Nc1cncc(-c2cc3c(-c4cc5c(-c6cccnc6)ccnc5[nH]4)n[nH]c3cn2)c1	77	0.01	0.019	> 10
Cc1ccc(-c2cccc3[nH]c(-c4n[nH]c5ccc(-c6cncc(N)c6)nc45)nc23)s1	87.9	0.01	0.02	0.0663
CCNCc1cncc(-c2cnc3[nH]nc(-c4cc5c(-c6cccnc6)ccnc5[nH]4)c3c2)c1	91.8	0.01	0.026	> 10
CN(C)Cc1cncc(-c2cc3c(-c4cc5c(-c6cccc(F)c6)nccc5[nH]4)n[nH]c3cn2)c1	60	0.03	0.054	1.85
CN(C)Cc1cncc(-c2ccc3[nH]nc(-c4cc5c(-c6cccc(F)c6)cncc5[nH]4)c3c2)c1	193	0.01	0.043	1.28
O=C(Nc1cncc(-c2ccc3[nH]nc(-c4cc5c(-c6cccnc6)cncc5[nH]4)c3c2)c1)c1ccccc1	68.5	0.01	0.035	> 10
CC(C)Nc1cncc(-c2ccc3[nH]nc(-c4cc5c(-c6cccnc6)cccc5[nH]4)c3c2)c1	226	0.01	0.083	0.1
Cc1ccncc1-c1cnc2[nH]nc(-c3nc4c(-c5cc(F)cc(CNS(C)(=O)=O)c5)nccc4[nH]3)c2c1	92.8	0.01	0.084	0.124
CC(C)Nc1cncc(-c2cnc3[nH]nc(-c4cc5c(-c6ccccc6F)nccc5[nH]4)c3c2)c1	75.8	0.01	0.044	0.435
CC(C)CC(=O)Nc1cncc(-c2ccc3[nH]nc(-c4nc5c(-c6ccc(Cl)s6)cncc5[nH]4)c3n2)c1	60.6	0.01	0.072	1.48
CN(C)c1cncc(-c2ccc3[nH]nc(-c4nc5c(-c6cccs6)cncc5[nH]4)c3n2)c1	65.6	0.01	0.034	0.71
CN(C)CCNc1cc(F)cc(-c2cccc3[nH]c(-c4n[nH]c5cnc(-c6cncc(O)c6)cc45)cc23)c1	66.4	0.01	0.06	0.405
CCNCc1cncc(-c2ccc3[nH]nc(-c4cc5ccccc5[nH]4)c3c2)c1	532	0.01	0.011	0.395
CN(C)Cc1cncc(-c2ccc3[nH]nc(-c4cc5c(-c6ccccc6F)cncc5[nH]4)c3n2)c1	50.6	0.03	0.069	1.37
CC(C)CC(=O)Nc1cncc(-c2cc3c(-c4cc5c(-c6cccs6)nccc5[nH]4)n[nH]c3cn2)c1	81.4	0.01	0.044	0.572
c1cncc(-c2ccc3[nH]nc(-c4nc5cnccc5[nH]4)c3n2)c1	54.8	0.03	0.097	> 10
CCC(=O)Nc1cncc(-c2cnc3[nH]nc(-c4cc5c(-c6cccnc6)cccc5[nH]4)c3c2)c1	671	0.01	0.013	0.18
Cc1cn(-c2nccc3[nH]c(-c4n[nH]c5ccc(-c6cncc(NC(=O)C(C)(C)C)c6)nc45)nc23)cn1	69.7	0.03	0.039	> 10
CC(C)Nc1cncc(-c2cnc3[nH]nc(-c4cc5c(-c6cccnc6)ccnc5[nH]4)c3c2)c1	135	0.01	0.018	> 10
CN(C)Cc1cncc(-c2ccc3[nH]nc(-c4nc5c(-c6cccc(F)c6)nccc5[nH]4)c3n2)c1	75.6	0.03	0.048	1.05
Cc1ccc(-c2nccc3[nH]c(-c4n[nH]c5ccc(-c6cncc(N)c6)cc45)nc23)s1	163	2.7	0.058	0.0019
CN1CCN(c2nccc3[nH]c(-c4n[nH]c5cnc(-c6cncc(NC(=O)c7ccccc7)c6)cc45)cc23)CC1	67	0.01	0.004	2.8
CC(C)Nc1cncc(-c2ccc3[nH]nc(-c4nc5c(-c6cccnc6)nccc5[nH]4)c3n2)c1	54.4	0.01	0.014	0.981
CCCC(=O)Nc1cncc(-c2cc3c(-c4cc5c(-c6cc(F)cc(NCCN(C)C)c6)ccnc5[nH]4)n[nH]c3cn2)c1	162	0.01	0.039	> 10
